Measurements reported in article PMC4821771 (The Journal of steroid biochemistry and molecular biology, 2016).
“Also recorded” adds a separate entry of the source.

Experiments:
recombinant human CYP3A4 = recombinant human CYP3A4 (Homo sapiens, UniProt P08684); test: Metabolism by CYP3A4 supersomes; type: in vitro ADME; conditions: for proportion of 20,25(OH)2D3:20,24R(OH)2D3:20,24S(OH)2D3: products of 20(OH)D3, CYP3A4 (Fig. S3A); for Km / kcat: initial rates of formation of all products, substrate in 0.45% HP-β-CD, 60 nM CYP3A4, mean ± standard error of the curve fit
human liver microsomes [1] = test: Metabolism of 20; type: in vitro ADME; conditions: for proportion of 20,25(OH)2D3:20,24R(OH)2D3:20,24S(OH)2D3 at the end of the time course: products of 20(OH)D3, human liver microsomes (Fig. S5A)
SKMEL-188 melanoma cells = conditions: cited from earlier work
[2] = high doses, up to 60 μg/kg in rodents; cited from earlier work
human liver microsomes [3] = test: Incubation of human liver microsomes with CYP3A4 inhibitors; conditions: for decrease of total products: 50 μM 20(OH)D3, 30 min
CYP3A4 = conditions: cited from earlier work
human liver microsomes [4] = tested on: human liver microsomes
[5] = total product formation from 20(OH)D3, microsomes 1.5 mg/mL

Chain of recombinant human CYP3A4 (P08684 2-503 limits assumed): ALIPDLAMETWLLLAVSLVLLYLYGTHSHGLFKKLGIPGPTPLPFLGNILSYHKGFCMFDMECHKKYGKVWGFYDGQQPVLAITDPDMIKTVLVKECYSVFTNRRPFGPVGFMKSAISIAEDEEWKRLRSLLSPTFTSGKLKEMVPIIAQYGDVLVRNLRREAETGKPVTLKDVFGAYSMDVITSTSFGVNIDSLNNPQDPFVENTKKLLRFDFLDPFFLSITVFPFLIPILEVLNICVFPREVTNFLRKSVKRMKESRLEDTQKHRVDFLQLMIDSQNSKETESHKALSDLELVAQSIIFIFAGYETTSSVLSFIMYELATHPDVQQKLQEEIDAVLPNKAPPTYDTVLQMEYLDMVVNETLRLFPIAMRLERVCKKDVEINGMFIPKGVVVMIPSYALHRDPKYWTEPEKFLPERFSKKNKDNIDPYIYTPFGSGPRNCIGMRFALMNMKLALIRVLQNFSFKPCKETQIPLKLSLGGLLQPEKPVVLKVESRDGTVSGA

In the case of `C=C1CC[C@H](O)C/C1=C/C=C1\CCC[C@@]2(C)[C@H]1CC[C@@H]2[C@@](C)(O)CCCC(C)(C)O` [20,25(OH)2D3, 20,25-dihydroxyvitamin D3], the “further metabolism by CYP3A4” value (recombinant human CYP3A4; 25 μM substrate in 0.45% HP-β-CD, 60 nM CYP3A4, one hour) is reported as “essentially no products formed”, the “proportion of 20,25(OH)2D3:20,24R(OH)2D3:20,24S(OH)2D3” value (recombinant human CYP3A4) is reported as 1 and the Vmax (human liver microsomes [1]; formation of the named product from 20(OH)D3, as given in the text) is reported as 134.2 ± 36.0 pmol/min/mg protein. The “proportion of 20,25(OH)2D3:20,24R(OH)2D3:20,24S(OH)2D3 at the end of the time course” value (shortened to “proportion … of the time course”) (human liver microsomes [1]) was 1 and the “inhibition of colony formation compared with 20(OH)D3” value (SKMEL-188 melanoma cells) was “more potent; also recorded: more strongly than the parent 20(OH)D3”.
With `C=C1CC[C@H](O)C/C1=C/C=C1\CCC[C@@]2(C)[C@H]1CC[C@@H]2[C@@](C)(O)CC[C@H](O)C(C)C` [20,24S(OH)2D3, 20,24S-dihydroxyvitamin D3] the Km (recombinant human CYP3A4) was 86.9 ± 44.3 µM, the kcat (recombinant human CYP3A4) was 0.275 ± 0.0717 s⁻¹ and the “proportion of 20,25(OH)2D3:20,24R(OH)2D3:20,24S(OH)2D3” value (recombinant human CYP3A4) was 0.14. For the same compound, the “proportion … of the time course” value (human liver microsomes [1]) was 0.16.
In the case of `C=C1CC[C@H](O)C/C1=C/C=C1\CCC[C@@]2(C)[C@H]1CC[C@@H]2[C@@](C)(O)CCCC(C)C` [20(OH)D3, 20S-Hydroxyvitamin D3], the “more products with substrate in HP-β-CD than when added from acetonitrile” value (recombinant human CYP3A4; CYP3A4 supersomes, not shown) is reported as 25 fold, the “metabolised faster than 25(OH)D3 (times)” value (recombinant human CYP3A4; formation of total products, 50 μM substrate (Fig. S3B)) is reported as “approximately 30 times” and the Km (recombinant human CYP3A4) is reported as 32.6 ± 2.8 µM. For the same compound, the kcat (recombinant human CYP3A4) was 0.295 ± 0.0083 s⁻¹, the “substrate consumed by the end of the incubation” value (recombinant human CYP3A4; time course of 20(OH)D3 metabolism by CYP3A4 (Fig. S3A)) was 18% and the Km (human liver microsomes [1]; [5]) was 165 ± 56 µM. For the same compound, the Vmax (human liver microsomes [1]; [5]) was 292.6 ± 60.3 min⁻¹ and the hypercalcaemia [2] was “does not induce hypercalcaemia”.
In the case of `CC[C@]1(C)C[C@@H](OC(=O)CSc2nnc(N)[nH]2)[C@]2(C)[C@H](C)CC[C@]3(CCC(=O)[C@H]32)[C@@H](C)[C@@H]1O` [azamulin], the “decrease of total products” value (human liver microsomes [3]; 1 μM azamulin) is reported as 60.0%, the “decrease of total products” value (human liver microsomes [3]; 10 μM azamulin) is reported as 75.9% and the “inhibition of production of 20,24R(OH)2D3, 20,24S(OH)2D3 and 20,25(OH)2D3” value (human liver microsomes [3]; human liver microsomes, abstract statement) is reported as “almost completely inhibited”.
In the case of `C=C1CC[C@H](O)C/C1=C/C=C1\CCC[C@]2(C)[C@@H]([C@H](C)CCCC(C)(C)O)CC[C@@H]12` [25(OH)D3, 25-hydroxyvitamin D3], the “catalytic efficiency for metabolism by CYP3A4” value (CYP3A4) is listed as 1.32 min⁻¹ µM⁻¹.
For `C=C1/C(=C\C=C2/CCC[C@]3(C)[C@@H]([C@H](C)CCCC(C)(C)O)CC[C@@H]23)C[C@@H](O)C[C@@H]1O` [1,25(OH)2D3, 1,25-dihydroxyvitamin D3], the “efficiency of metabolism by CYP3A4” value (CYP3A4) is given as 0.70 min^−1μM^−1.
For `NNC(=O)c1ccncc1` [isoniazid], the “effect on peaks corresponding to 20,25(OH)2D3, 20,24R(OH)2D3/20,26(OH)2D3, 20,24S(OH)2D3 and H6” value (human liver microsomes [4]) was “markedly decreased”.
With `C=C1CC[C@H](O)C/C1=C/C=C1\CCC[C@@]2(C)[C@H]1CC[C@@H]2[C@@](C)(O)CC[C@@H](O)C(C)C` [20,24R(OH)2D3, 20,24R-dihydroxyvitamin D3] the Km (recombinant human CYP3A4) was 332 ± 194 µM, the kcat (recombinant human CYP3A4) was 1.08 ± 0.475 s⁻¹ and the “proportion of 20,25(OH)2D3:20,24R(OH)2D3:20,24S(OH)2D3” value (recombinant human CYP3A4) was 0.41. The “proportion … of the time course” value (human liver microsomes [1]) was 0.47 and the “inhibition of colony formation compared with 20(OH)D3” value (SKMEL-188 melanoma cells) was “more potent; also recorded: more strongly than the parent 20(OH)D3”.
